Measurements from patent US8178506B2, “Oligomeric compounds and compositions for use in modulation of small non-coding RNAs” (Regulus Therapeutics Inc., priority 2003, dated 2012).
Values joined by “and” are separate entries in the source; they are usually repeats but may differ in a detail not shown here. Identical values can stand only once. In the oligonucleotide strings, read from the 5' end, every base follows the letter of its sugar. An asterisk marks phosphorothioate; unmarked linkages are phosphodiester. Other units and linkages are bracketed, terminal groups are in braces. A string of capitals states the bases alone. e = 2'-O-(2-methoxyethyl) (MOE); [5mC] = 5-methylcytosine; d = 2'-deoxy (DNA)

System: HeLa cells
Assay: Cell cycle assay in HeLa cells
Type: cell-based, human
Conditions: HeLa cells; for % cells in cell cycle phase: G1 / % cells in cell cycle phase: G2/M / % cells in cell cycle phase: S / % cells in cell cycle phase: aneuploid / % cells in cell cycle phase: subG1: 48 hours after treatment, relative to untreated control (UTC=100)
Procedure: In some embodiments, HeLa cells were plated on collagen-coated 24-well plates at 50,000-60,000 cells per well, and allowed to attach to wells overnight. In some embodiments, HeLa cells were synchronized by double thymidine block (cells were washed three times with PBS, then grown in 10% FBS containing 2 mM thymidine; then 19 hours later, cells were washed three times in PBS, 10% FBS for 9 hours; cells were then incubated in 10% FBS, 2 mM thymidine for 15 hours; then washed three times with PBS, 10% FBS and samples were taken every two hours over a 16 hour period). A portion of each time sample was fixed with ethanol and treated with propidium iodide and subjected to FACs analysis for determination of the percentage of cells in each phase of the cell cycle. […] HeLa cells treated with 10 μM cisplatin or 100 ng/ml nocodazole were used as controls for G1-phase and late G2/M-phases, respectively. From the remaining portion of each of these time samples, total RNA was isolated and used to assess the expression of cell cycle marker mRNAs using the real-time RT-PCR methods and/or used to screen microarrays to assess the expression of miRNAs over the course of the cell cycle. It was observed that several miRNAs are expressed in a cell-cycle-dependent manner. Shown in Table 30 are the mRNA levels of the E2F1 transcription factor and topoisomerase 2A (Top2A), which vary over the course of the cell cycle and can be used for comparison to the experimental groups for the confirmation of cell cycle phase. Data are an average of three trials.
In some embodiments, HeLa cells were also treated with oligomeric compounds targeting miRNAs. […] The medium was removed from the plates. Each well was washed in 250 μl of PBS. […] Control cells received LIPOFECTIN™ only. […] After 24 hours (Table 31) or 48 hours (Table 32), cells were prepared for flow cytometry analysis to generate a cell cycle profile. The cell cycle profile was analyzed with the ModFit program (Verity Software House, Inc., Topsham Me.).
The random-mer ISIS 29848 (SEQ ID NO: 737) was used as a negative control, and ISIS 183891 (SEQ ID NO: 847), targeting kinesin-like 1/Eg5, was included as a positive control. Data are expressed as percentage of cells in each phase relative to the untreated control (UTC); values above 100 are considered to indicate a delay or arrest in that phase of the cell cycle. […] In some cases, the same oligomeric compound was tested in repeated experiments.
In accordance with the present invention, certain oligomeric compounds targeting miRNAs were selected for dose response studies. Using the cell cycle assay described above, the cell cycle profiles of HeLa or A549 cells treated with varying concentrations of oligomeric compounds of the present invention were assessed.
HeLa cells were treated with 25-, 50-, 100- or 150 nM of the oligomeric compounds ISIS
Numbers 327902 (SEQ ID NO: 320) and 328383 (SEQ ID NO: 492), both targeted against mir-192, and ISIS 327905 (SEQ ID NO: 323), targeting mir-205, and ISIS 328403 (SEQ ID NO: 512), targeting mir-106. Cells treated with increasing concentrations of oligomeric compounds were compared to untreated cells, to assess the dose-dependency of the observed delay or arrest. The random-mer ISIS 29848 was used as a negative control. Cells were prepared for flow cytometry 48-hours after oligonucleotide treatment, as described, supra.

[1] = 150 nM oligomeric compound, 24 hours, relative to untreated control (UTC = 100)
[2] = 150 nM, 48 hours, relative to untreated control

Substance | % cells aneuploid [1] | % cells in cell cycle phase G1 [1] | % cells in cell cycle phase G2/M [1] | % cells in cell cycle phase S [1] | % cells in cell cycle phase subG1 [1] | % cells in cell cycle phase: G1 (150 nM oligomeric compound) | % cells in cell cycle phase: G2/M (150 nM oligomeric compound) | % cells in cell cycle phase: S (150 nM oligomeric compound) | % cells in cell cycle phase: aneuploid (150 nM oligomeric compound) | % cells in cell cycle phase: subG1 (150 nM oligomeric compound) | % cells in cell cycle phase G1 [2] | % cells in cell cycle phase G2/M [2] | % cells in cell cycle phase S [2] | % cells in cell cycle phase aneuploid [2] | % cells in cell cycle phase subG1 [2]
328337 (eG*e[5mC]*eT*eA*eG*dA*dT*dA*d[5mC]*dA*dA*dA*dG*dA*dT*eG*eG*eA*eA*eA) [compound 328337] | 104% and 64% | 106% and 108% | 113% and 109% | 88% | 107% and 99% | 92% and 73% | 119% and 135% | 105% and 143% | 108% and 74% | – | – | – | – | – | –
328339 (eG*e[5mC]*eA*eG*e[5mC]*dG*d[5mC]*dA*dG*d[5mC]*dT*dG*dG*dT*d[5mC]*eT*e[5mC]*e[5mC]*e[5mC]*e[5mC]) [compound 328339] | 61% | 77% | 143% | 102% | 235% | 73% | 123% | 153% | 92% | 678% | – | – | – | – | –
328674 (eT*eG*e[5mC]*e[5mC]*e[5mC]*dT*dG*d[5mC]*dT*d[5mC]*dA*dG*dA*dG*d[5mC]*e[5mC]*e[5mC]*eT*eA*eG; antisense) [compound 328674] | 69% | 125% | 84% | 93% | 564% | 69% | 109% | 160% | 134% | 1663% | – | – | – | – | –
328676 (eA*e[5mC]*e[5mC]*eT*e[5mC]*d[5mC]*d[5mC]*dA*dG*d[5mC]*d[5mC]*dA*dA*dT*d[5mC]*e[5mC]*eA*eT*eG*eT; antisense) [compound 328676] | 169% | 99% | 134% | 86% | 139% | 86% | 118% | 118% | 172% | 366% | – | – | – | – | –
328707 (eG*e[5mC]*eA*eA*e[5mC]*dA*dG*dG*d[5mC]*d[5mC]*dT*d[5mC]*dA*dA*dT*eA*eT*e[5mC]*eT*eT) [compound 328707] | 166% | 36% | 195% | 93% | 188% | 46% | 213% | 134% | 155% | 1486% | 103% | 122% | 87% | 140% | 125%
328724 (antisense eG*eA*e[5mC]*eA*eT*d[5mC]*dA*dT*dG*dT*dG*dA*dT*dT*dT*eG*e[5mC]*eT*e[5mC]*eA) [compound 328724] | 197% | 91% | 135% | 90% | 155% | 70% | 140% | 134% | 155% | 653% | – | – | – | – | –
328727 (antisense e[5mC]*eT*eG*e[5mC]*eT*d[5mC]*d[5mC]*dA*dG*dA*dG*d[5mC]*d[5mC]*d[5mC]*dG*eA*eG*eT*e[5mC]*eG) [compound 328727] | 161% | 133% | 105% | 81% | 245% | 68% | 124% | 152% | 140% | 846% | – | – | – | – | –
328749 (antisense e[5mC]*eA*eG*e[5mC]*e[5mC]*dT*dG*d[5mC]*d[5mC]*dA*d[5mC]*d[5mC]*dG*d[5mC]*d[5mC]*eG*e[5mC]*eT*eT*eT) [compound 328749] | 138% | 126% | 110% | 82% | 312% | 37% | 246% | 129% | 65% | 962% | – | – | – | – | –
328780 (antisense eT*eG*eT*e[5mC]*eA*dT*dG*dG*dA*d[5mC]*dA*dG*dG*dA*dT*eG*eA*eA*eT*eA) [compound 328780] | 149% | 96% | 136% | 87% | 124% | 83% | 110% | 130% | 133% | 917% | – | – | – | – | –
338666 (antisense TCACGTGGAGAGGAGTTAAA; all 2'-MOE, all phosphorothioate, methylation of C not given here) [compound 338666] | 102% | 123% | 158% | 63% | 235% | 44% | 217% | 136% | 125% | 1832% | 92% | 130% | 98% | 151% | 214%
338678 (antisense CTGGTTGGGTATGAGACAGA; all 2'-MOE, all phosphorothioate, methylation of C not given here) [compound 338678] | 202% | 122% | 131% | 75% | 162% | 81% | 188% | 78% | 179% | 1158% | 103% | 105% | 94% | 132% | 129%
338690 (antisense TAGACAAAAACAGACTCTGA; all 2'-MOE, all phosphorothioate, methylation of C not given here) [compound 338690] | 194% | 124% | 123% | 78% | 149% | 91% | 112% | 110% | 190% | 413% | – | – | – | – | –
